Values of other authors, collected in Sander's compilation of Henry's law constants (doi:10.2175/wer.65.7.2).

Test: Henry solubility constant Hcp at 293 K (mol/(m3 Pa))
Conditions: reference: Smith et al. (1993); cited value

Row | SMILES | Henry solubility constant Hcp at 293 K
1 | c1ccccc1 [benzene] | 0.0018
2 | Cc1ccccc1 [methylbenzene] | 0.0017

Test: Henry solubility constant Hcp at 294 K (mol/(m3 Pa))
Conditions: reference: Smith et al. (1993); cited value

Row | SMILES | Henry solubility constant Hcp at 294 K
3 | c1ccc2c(c1)ccc1ccccc12 [phenanthrene] | 0.25

Test: Henry solubility constant Hcp at 298.15 K (mol/(m3 Pa))
Conditions: reference: Smith et al. (1993); cited value

Row | SMILES | Henry solubility constant Hcp
4 | c1ccc2c(c1)-c1ccc3ccc4cccc5cc-2c1c3c45 [indeno[1,2,3-cd]pyrene] | 140
5 | c1ccc2c(c1)-c1cccc3c1c-2cc1ccccc13 [benzo[b]fluoranthene] | 0.83
6 | c1cc2c3c(cccc3c1)CC2 [acenaphthene] | 0.041
7 | c1ccc2c(c1)Cc1ccccc1-2 [2,3-benzindene] | 0.084
8 | C1=Cc2cccc3cccc1c23 [acenaphthylene] | 0.087
9 | c1ccc2c(c1)ccc1c3ccccc3ccc21 [chrysene] | 9.4
10 | c1ccc2c(c1)-c1cccc3cccc-2c13 [benzo[jk]fluorene] | 1.5
11 | c1ccc2cc3ccccc3cc2c1 [anthracene] | 0.11
12 | Cc1ccc(O)c(C)c1 [1-hydroxy-2,4-dimethylbenzene] | 0.58
13 | c1cc2ccc3ccc4ccc5cccc6c(c1)c2c3c4c56 [benzo[ghi]perylene] | 180
14 | c1ccc2c(c1)cc1ccc3cccc4ccc2c1c34 [benzo[a]pyrene] | 20
15 | c1ccc2c(c1)ccc1cc3c(ccc4ccccc43)cc12 [dibenz[a,h]anthracene] | 140
16 | c1ccc2cc3c(cc2c1)-c1cccc2cccc-3c12 [benzo[k]fluoranthene] | 0.25
17 | c1ccc2ccccc2c1 [naphthalene] | 0.02
